Like-named read-outs stand apart in the source and are kept apart here.
Columns and labels:
[1] = tested on: Staphylococcus epidermidis; assay: MIC and MBC, broth micro-dilution; format: cell-based; conditions: S. epidermidis; for MIC: 24 h
[2] = tested on: Panc-1 (pancreatic cancer); assay: MTT antiproliferative assay; format: cell-based, human; conditions: mean ± SD
Pseudomonas aeruginosa = assay: MIC and MBC, broth micro-dilution; format: cell-based
[3] = tested on: U251 (glioblastoma cancer); assay: MTT antiproliferative assay; format: cell-based, human; conditions: U251, 48 h, mean ± SD
Bacillus sphaericus = assay: MIC and MBC, broth micro-dilution; format: cell-based; conditions: B. sphaericus; for MIC: 24 h
Staphylococcus aureus = assay: MIC and MBC, broth micro-dilution; format: cell-based; conditions: S. aureus; for MIC: 24 h
[4] = tested on: MCF-7 (human breast adenocarcinoma cells); assay: MTT antiproliferative assay; format: cell-based; conditions: MCF-7, 48 h, mean ± SD
DU-145 (prostate cancer) = assay: MTT antiproliferative assay; format: cell-based, human; conditions: DU-145, 48 h, mean ± SD
[5] = tested on: normal human dermal fibroblasts (NHDF); assay: MTT assay in non-malignant cells; format: cell-based; conditions: 48 h, mean ± SD
Escherichia coli = assay: MIC and MBC, broth micro-dilution; format: cell-based; conditions: E. coli; for MIC: 24 h
Klebsiella pneumoniae = assay: MIC and MBC, broth micro-dilution; format: cell-based; conditions: K. pneumoniae; for MIC: 24 h
U251 cell line = assay: Cytotoxicity of selenous acid (MTS assay, Figure S60); format: cell-based, human; conditions: U251, 48 h, 1–100 µM
Text: The striking difference in the potency of Se salts as compared to their corresponding parent compounds raises a question: Could the release of the Se salt part of the molecules be solely responsible for these activities? Nevertheless, after thoroughly analyzing the in vitro antiproliferative activities and the structure of the reported compounds, our initial hypothesis is that the antitumor activity of the new selenium salts might not be due to the release of the Se inorganic, as evinced by the following four experimental outcomes: (1) All the salt compounds should have shown similar efficacy at the same molar concentrations if the toxicity was solely due to the release of the Se salt part. […] To confirm this hypothesis and due to the scarce number of reported antitumor activities of selenous acid, we evaluated H2SeO3 in the U251 cell line in our experimental setup. […] Since the IC50 value of selenous acid is in the range of what is observed for SLT-1-6 (Table 3), the increased antiproliferative activity of the salts might or might not be linked to the release of the Se salt fragment of the molecule. […] Further studies are needed to fully characterize and understand the behavior of these selenous salts.
Figure S58. Dose-response curves of SLT-6 in all the cell lines present in the NCI panel.
Figure S59. […]
Cell viability was assessed using an MTS assay. […]

Panc-1 cells = conditions: several experimental conditions; cited from earlier work
[6] = Staphylococcus epidermidis, read-out: MIC
[7] = Staphylococcus epidermidis, read-out: MBC
[8] = Pseudomonas aeruginosa; P. aeruginosa; read-out: MBC
[9] = Lysinibacillus sphaericus, read-out: MIC
[10] = Lysinibacillus sphaericus, read-out: MBC
[11] = Staphylococcus aureus, read-out: MIC
[12] = Staphylococcus aureus, read-out: MBC
[13] = Escherichia coli, read-out: MIC
[14] = Escherichia coli, read-out: MBC
[15] = Klebsiella pneumoniae, read-out: MBC
[16] = Klebsiella pneumoniae, read-out: MIC
[17] = Pseudomonas aeruginosa; P. aeruginosa, 24 h; read-out: MIC

COc1cc(Cc2cnc(N)nc2N)cc(OC)c1OC [AB-2, trimethoprim]
6.25 µg/mL: MBC (Bacillus sphaericus; [10]) | MBC (Escherichia coli; [14])
1.56 µg/mL: MIC (Bacillus sphaericus; [9]) | MIC (Staphylococcus aureus; [11]) | MIC (Escherichia coli; [13])
12.5 µg/mL: MBC (Klebsiella pneumoniae; [15])
50 µg/mL: MIC (Pseudomonas aeruginosa; Pseudomonas aeruginosa, 24 h, P. aeruginosa, 24 h; read-out: MIC)
3.13 µg/mL: MBC (Staphylococcus aureus; [12]) | MIC (Klebsiella pneumoniae; [16])
> 200 µg/mL: MIC [1, 6] | MBC [1, 7] | MBC (Pseudomonas aeruginosa; [8])
6.47 ± 1.79 µM: IC50 ([5]; Homo sapiens)
> 100 µM: IC50 ([2]; Homo sapiens, PANC-1, 48 h) | IC50 [3] | IC50 [4] | IC50 (DU-145 (prostate cancer))

Nc1ccc(S(=O)(=O)c2ccc(N)cc2)cc1 [AB-3, dapsone]
> 100 µM: IC50 ([2]; Homo sapiens, PANC-1, 48 h) | IC50 [3] | IC50 [4] | IC50 (DU-145 (prostate cancer)) | IC50 [5]
>200 µg/mL: MBC [1] | MIC [1] | MBC (Pseudomonas aeruginosa; P. aeruginosa) | MIC (Pseudomonas aeruginosa; P. aeruginosa, 24 h) | MBC (Bacillus sphaericus) | MIC (Bacillus sphaericus) | MBC (Staphylococcus aureus) | MIC (Staphylococcus aureus) | MBC (Escherichia coli) | MIC (Escherichia coli) | MBC (Klebsiella pneumoniae) | MIC (Klebsiella pneumoniae)

Nc1ccc(S(=O)(=O)Nc2ncccn2)cc1 [AB-4, sulfadiazine]
> 200 µg/mL: MBC [1, 7] | MBC (Pseudomonas aeruginosa; [8]) | MIC (Bacillus sphaericus; [9]) | MBC (Bacillus sphaericus; [10]) | MIC (Staphylococcus aureus; [11]) | MBC (Staphylococcus aureus; [12]) | MIC (Escherichia coli; [13]) | MBC (Escherichia coli; [14]) | MBC (Klebsiella pneumoniae; [15]) | MIC (Klebsiella pneumoniae; [16])
>200 µg/mL: MIC [1]
50 µg/mL: MIC (Pseudomonas aeruginosa; P. aeruginosa, 24 h)
> 100 µM: IC50 ([2]; Panc-1, 48 h) | IC50 [3] | IC50 [4] | IC50 (DU-145 (prostate cancer)) | IC50 [5]

NNC(=O)c1ccncc1 [AB-5, isoniazid]
99.92 ± 0.2 µM: IC50 (DU-145 (prostate cancer))
> 100 µM: IC50 ([2]; Homo sapiens, PANC-1, 48 h) | IC50 [3] | IC50 [4]
> 200 µg/mL: MIC [1, 6] | MBC [1, 7] | MIC (Pseudomonas aeruginosa; [17]) | MBC (Pseudomonas aeruginosa; [8]) | MIC (Bacillus sphaericus; [9]) | MBC (Bacillus sphaericus; [10]) | MIC (Staphylococcus aureus; [11]) | MBC (Staphylococcus aureus; [12]) | MIC (Escherichia coli; [13]) | MBC (Escherichia coli; [14]) | MBC (Klebsiella pneumoniae; [15]) | MIC (Klebsiella pneumoniae; [16])
41.2 ± 12.1 µM: IC50 [5]

CNC(C)C1CCC(N)C(OC2C(N)CC(N)C(OC3OCC(C)(O)C(NC)C3O)C2O)O1 (stereo not drawn) [AB-6, gentamicin]
12.5 µg/mL: MBC (Pseudomonas aeruginosa; [8])
6.56 µg/mL: MIC (Pseudomonas aeruginosa; [17])
3.13 µg/mL: MBC (Klebsiella pneumoniae)
50 µg/mL: MBC (Staphylococcus aureus)
0.2 µg/mL: MIC (Bacillus sphaericus; [9])
1.56 µg/mL: MIC (Klebsiella pneumoniae; Klebsiella pneumoniae)
25 µg/mL: MIC (Staphylococcus aureus; [11]) | MIC (Escherichia coli; [13]) | MBC (Escherichia coli; [14])
0.39 µg/mL: MBC [1] | MIC [1]
> 100 µM: IC50 ([2]; Panc-1, 48 h) | IC50 [3] | IC50 [4] | IC50 (DU-145 (prostate cancer)) | IC50 [5]
0.78 µg/mL: MBC (Bacillus sphaericus; [10])

O=[Se](O)O [H2SeO3, selenous acid]
200 µg/mL: MBC [1] | MIC (Pseudomonas aeruginosa; P. aeruginosa, 24 h) | MBC (Bacillus sphaericus) | MBC (Staphylococcus aureus) | MIC (Escherichia coli) | MBC (Klebsiella pneumoniae)
100 µg/mL: MIC [1] | MIC (Bacillus sphaericus) | MIC (Staphylococcus aureus) | MIC (Klebsiella pneumoniae)
1040 nM: IC50 (U251 cell line)
>200 µg/mL: MBC (Pseudomonas aeruginosa; P. aeruginosa) | MBC (Escherichia coli)

O=[Se]([O-])[O-].[Na+].[Na+] [sodium selenite]
low micromolar range: IC50 (Panc-1 cells)

Source: paper PMC12029531, “Selenium in Action: Exploring the Biological Wonders of Hydroselenite Salts” (Molecules, 2025)
